These results are taken from ChEMBL document CHEMBL1126355, “The basis for slowly reversible inhibition of dehydroquinate synthase: a case of mistaken identity?” (Bioorg Med Chem Lett, 1992).

Assay [1] deals with T1, 3-dehydroquinate synthase (Escherichia coli K-12) (UniProt P07639).
T1 sequence (whole entry): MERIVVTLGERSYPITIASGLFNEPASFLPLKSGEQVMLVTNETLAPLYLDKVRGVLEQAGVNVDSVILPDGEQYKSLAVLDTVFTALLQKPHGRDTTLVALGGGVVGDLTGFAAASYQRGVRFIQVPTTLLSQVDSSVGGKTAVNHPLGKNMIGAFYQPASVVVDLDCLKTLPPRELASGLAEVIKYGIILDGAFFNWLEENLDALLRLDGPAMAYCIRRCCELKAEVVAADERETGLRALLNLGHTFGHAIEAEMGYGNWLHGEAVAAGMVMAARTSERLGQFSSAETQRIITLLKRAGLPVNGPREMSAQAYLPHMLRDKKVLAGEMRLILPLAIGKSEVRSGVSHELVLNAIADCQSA
Put plainly: Type of inhibition of 3-dehydroquinate synthase was determined; R - Slowly reversible.

In assay [2] the target is T2, 3-dehydroquinate synthase (Escherichia coli K-12, UniProt P07639).
T2 sequence (P07639 whole entry): T1 sequence (whole entry)
Put plainly: Inhibition constant against 3-dehydroquinate synthase.

Assay [3] addresses T1, 3-dehydroquinate synthase (Escherichia coli K-12). Put plainly: […] rate constant against 3-dehydroquinate synthase.
Assay [4] has the same target. As to the kind of experiment: Rate constant against 3-dehydroquinate synthase.

On to `O=C(O)C1(O)CCC(O)C(CP(=O)(O)O)C1` (centres undefined), for which the inhibition result in assay [1] is recorded as “R”.

The term Ki denotes a measure of affinity in units of concentration, obtained from inhibition or displacement. Higher therefore signals lower affinity. As to `O=C(O)C1(O)CC(O)CC(CP(=O)(O)O)C1` (centres undefined), in assay [1], the inhibition entry was “R”. In assay [2], this compound came in with a Ki of 540 nM. In assay [3], the k off turned out to be 0.00054 s⁻¹. Further, in assay [4], the k on is 1000 M⁻¹ s⁻¹.

On to `O=C(O)C1(O)CC(O)C(O)C(CP(=O)(O)O)C1` (centres undefined), for which the inhibition entry in assay [1] is “R”. In assay [2], the Ki stood at 5.4 nM. This compound also came in with a k off in assay [3] of 0.00075 s⁻¹. The compound further came in with a k on in assay [4] of 140000 M⁻¹ s⁻¹.
